Consider 36 compounds from patent US20180179524A1, “COMPOSITIONS AND METHODS FOR INHIBITING CELL PROLIFERATION” (President and Fellows of Harvard College, priority 2015, published 2018).

In series [1] the test system is Tsc2−/− MEFs. As to the kind of experiment: Proliferation of Tsc2-/- MEFs relative to Tsc2+/+ MEFs treated with compounds (FIG. 9). In kind it is cell-based. As to the method: FIG. 9 is a series of panels, panels A-E showing TSC2 loss confers sensitivity to CCNT1, RNGTT, or CDK11 loss of function. Panel A is a schematic of the methods disclosed herein. […] Panel B represents data corresponding to the CDK9/CDK11 inhibitor JWD07 (5 μM). Panel C represents data corresponding to the CDK2/CDK9/CDK11 inhibitor AT7915 (2 μM). Panel D represents data corresponding to the RNGTT/IMPDH inhibitor Mizoribine (2.5 μM). Panel E represents data corresponding to the mTORC1 inhibitor Rapamycin (20 nM).

In series [2] the test system is luciferase-based reporter constructs in S2R+ cells. As to the kind of experiment: Luciferase-based mutation reporter assay (sgRNA mutation efficiency). It is filed as cell-based, Drosophila. As to conditions: sgRNAs with no mismatches targeting luciferase-based reporter in S2R+ cells; mutation rate = 1/Firefly luciferase normalized to Renilla. The procedure: The luciferase reporter vector was constructed by PCR amplifying the metallothionein promoter from pMK33 and luciferase gene from pGL3 (Table 1) and combining these with annealed oligos containing a gRNA target site (Table 1 and Table 2) and a custom made cloning vector using Golden Gate assembly.
Luciferase assays were performed by transfecting S2R+ cells with the relevant pl018 plasmid, luciferase reporter and pRL-TK (Promega) (to allow normalization of transfection efficiencies between samples) in 96 well plates using Effectene Transfection Reagent (Qiagen) according to the manufacturer's recommendations. Twenty-four hours after transfection, CuSO4 was added to the cell media at a final concentration of 140 μM and cells were incubated for a further 16 hours.
Firefly and Renilla luciferase readings were taken using the Dual-Glo Luciferase Assay System (Promega) according to manufacturer's instructions and a SpectraMax Paradigm Multi-Mode Microplate Detection Platform (Molecular Devices).
Because the rate of mutations varies widely between different sgRNAs (25-27), whether efficiency could be predicted based on the sgRNA sequence was tested. 75 additional sgRNAs were generated, each targeting luciferase-based reporter constructs with no mismatches and tested mutation efficiency for each. Using this panel of sgRNAs and associated efficiencies, the presence or absence of a correlation between GC content and mutation rate was examined. […] Next, whether a more general sequence-based approach was tested for its ability to improve efficiency prediction. The nucleotide content of all 75 sgRNAs was examined, considering each position separately and generated a probability matrix linking nucleotide content with mutation rate (FIG. 1, panel B). This was then used to generate predicted efficiency scores based on sgRNA sequence. […] Note that sgRNAs targeting close to the 3′ end of genes or with apparent viability effects were not included in this analysis. Finally, predicted scores were generated for all sgRNA target sites in the Drosophila genome and annotated.
On the technique in general: Reporter assays use an easily measured gene product as a stand-in for the process of interest.

On to `O=C(NC1CCNCC1)c1n[nH]cc1NC(=O)c1c(Cl)cccc1Cl` [AT7915], for which the “proliferation of Tsc2−/− MEFs relative to Tsc2+/+ MEFs” value in series [1] (2 μM, FIG. 9 panel C) was “selectively reduce proliferation”. The “cytotoxic effect on Tsc2−/− cells” value in series [1] (JWD07 5 μM, AT7915 2 μM, Mizoribine 2.5 μM) is given as “exert a cytotoxic effect”. The “selective effects on cell viability in Tsc2−/− cells compared with rapamycin” value in series [1] (JWD07 5 μM, AT7915 2 μM, Mizoribine 2.5 μM vs Rapamycin 20 nM) was “superior to rapamycin”.

In series [2], “GACCGGATTCGCTACAACCC: sgRNA targeting a luciferase-based reporter construct, no mismatches (chemistry not given here)” showed a Mean efficiency of 0.6963. Still for that read-out and setting: with “GCACCCTGCACGAATTATTT: sgRNA targeting a luciferase-based reporter construct, no mismatches (chemistry not given here)” the figure was 0.2041; with “GCATGCCCACCTTATCGGCG: sgRNA targeting a luciferase-based reporter construct, no mismatches (chemistry not given here)”, 0.1169. In the case of “GCCCAGGGGGAATCGGCCGC: sgRNA targeting a luciferase-based reporter construct, no mismatches (chemistry not given here)”, the Mean efficiency in series [2] amounted to 0.4072. For the compound “GCCCGAAAGACACGTTTTTT: sgRNA targeting a luciferase-based reporter construct, no mismatches (chemistry not given here)”, in series [2], the Mean efficiency amounted to 0.197. For “GCGAGTTATCTATCCCCAGG: sgRNA targeting a luciferase-based reporter construct, no mismatches (chemistry not given here)”, the Mean efficiency in series [2] is 0.4749. On the same count and under the same terms, the figure for “GCTCTGGACCATACGGGGAT: sgRNA targeting a luciferase-based reporter construct, no mismatches (chemistry not given here)” is 0.1746. The same measure, in the same setting: with “GGAATAACCACGTCCCGCGT: sgRNA targeting a luciferase-based reporter construct, no mismatches (chemistry not given here)” the figure was 0.2894; with “GGAGCGAGTTATCTATCCCC: sgRNA targeting a luciferase-based reporter construct, no mismatches (chemistry not given here)”, 0.06181; with “GGATGTTCCGGCACAACGCC: sgRNA targeting a luciferase-based reporter construct, no mismatches (chemistry not given here)”, 0.2753.

Turning to “GGCACCGGGTAGCCTTGCGC: sgRNA targeting a luciferase-based reporter construct, no mismatches (chemistry not given here)”, the Mean efficiency in series [2] is on record as 0.3497. “GGGCTCCAGGCTGCGCGCAA: sgRNA targeting a luciferase-based reporter construct, no mismatches (chemistry not given here)” came in with a Mean efficiency in series [2] of 0.2308. In series [2], “GGTTACCAACTCAGGACCCG: sgRNA targeting a luciferase-based reporter construct, no mismatches (chemistry not given here)” gave a Mean efficiency of 0.4858.

For “GGTTCACTATTGGGGCGATC: sgRNA targeting a luciferase-based reporter construct, no mismatches (chemistry not given here)”, the Mean efficiency in series [2] is 0.1771.

Compound “GTCGGAACCTGAGTCGTTTT: sgRNA targeting a luciferase-based reporter construct, no mismatches (chemistry not given here)” came in with a Mean efficiency in series [2] of 0.5891. In series [2], “GTGCTGCGCCAACCCAAATA: sgRNA targeting a luciferase-based reporter construct, no mismatches (chemistry not given here)” displayed a Mean efficiency of 0.0849. On the same count and under the same terms, the figure for “GTGGAATCTACTGTGGAATC: sgRNA targeting a luciferase-based reporter construct, no mismatches (chemistry not given here)” is 0.2969.

In series [2], “GTGTCCAGGCTCGTCATGCC: sgRNA targeting a luciferase-based reporter construct, no mismatches (chemistry not given here)” displayed a Mean efficiency of 0.8603. Still for that read-out and setting: with “TAAGACATACGTACGCCCAG: sgRNA targeting a luciferase-based reporter construct, no mismatches (chemistry not given here)” the figure was 0.1814; with “TCCTATTACTGCGTGCAGCC: sgRNA targeting a luciferase-based reporter construct, no mismatches (chemistry not given here)”, 1.342; with “TCGAGGATGGGACGCTTATC: sgRNA targeting a luciferase-based reporter construct, no mismatches (chemistry not given here)”, 0.5053. As for “TCGATGACGCCCGGGTTAAC: sgRNA targeting a luciferase-based reporter construct, no mismatches (chemistry not given here)”, the Mean efficiency in series [2] is 0.26. As to “TCGCGGGCTTGCATGACGCG: sgRNA targeting a luciferase-based reporter construct, no mismatches (chemistry not given here)”, in series [2], the Mean efficiency is on record as 0.3295. Take “TCGTACCGCACCGGTATTTT: sgRNA targeting a luciferase-based reporter construct, no mismatches (chemistry not given here)”: the Mean efficiency in series [2] is listed as 0.1565. Take “TGACGCCTCAGGGTGCCGTC: sgRNA targeting a luciferase-based reporter construct, no mismatches (chemistry not given here)”: the Mean efficiency in series [2] is on record as 0.6594. Same read-out and setting: the figure for “TGCGCTTACCGACGATTGGG: sgRNA targeting a luciferase-based reporter construct, no mismatches (chemistry not given here)” is 0.1109; for “TGCGGTCGCGTGAGAAATAT: sgRNA targeting a luciferase-based reporter construct, no mismatches (chemistry not given here)” it is 0.02876; for “TGTTCCCTACACGGCGCCAG: sgRNA targeting a luciferase-based reporter construct, no mismatches (chemistry not given here)” it is 0.2531. Consider “TTCTCCGCTGTTATCCTATA: sgRNA targeting a luciferase-based reporter construct, no mismatches (chemistry not given here)”, for which the Mean efficiency in series [2] was determined as 0.08182. Take “TTCTGAGTACATGTGATACC: sgRNA targeting a luciferase-based reporter construct, no mismatches (chemistry not given here)”: in series [2], the Mean efficiency is given as 0.2974. In the case of “TTGACATCAGCGCGCGAGGC: sgRNA targeting a luciferase-based reporter construct, no mismatches (chemistry not given here)”, the Mean efficiency in series [2] was 0.3893. On the same count and under the same terms, with “TTGGCCGCGACCTGTTTATC: sgRNA targeting a luciferase-based reporter construct, no mismatches (chemistry not given here)” the figure was 0.9282; with “TTGTTCGAAGATCTGCGCGA: sgRNA targeting a luciferase-based reporter construct, no mismatches (chemistry not given here)”, 0.2212.

As for “TTGTTTGCTGGTACAAACGC: sgRNA targeting a luciferase-based reporter construct, no mismatches (chemistry not given here)”, the Mean efficiency in series [2] is reported as 0.2993. For “TTTTTTTGGGATCATATACG: sgRNA targeting a luciferase-based reporter construct, no mismatches (chemistry not given here)”, the Mean efficiency in series [2] is on record as 0.1278.
